The test concerns HeLa cell. Put plainly: Cell penetration of pep(CPP)-FITC conjugate in HeLa cell line, flow cytometry (FACS). Type of test: cell-based, Homo sapiens. Particulars: HeLa cells, 20 uM FITC-fused peptide, 37° C. for an hour, control = FITC only. On the procedure:
Homo sapiens cervix adenocarcinoma cell line as HeLa cell lines were purchased from ATCC (American Type Cell Culture). The cells were cultured in MEM supplemented with 10% fetal bovine serum (Invitrogen, USA), Earle's salts, non-essential amino acids, sodium pyruvate and 100 μg/ml penicillin and 10 units/ml streptomycin and cultured at 37° C., 5% CO2 incubator.
Flow cytometry and Confocal microscope analysis were performed to compare the between degree of cellular uptake of the cells were treated with SEQ ID NO: 2 to SEQ ID NO: 178, pep (CPP) and control.
The cell line was divided in a 6-well plate and cultured in a medium containing 10% fetal bovine serum (Invitrogen, USA), 100 μg/ml penicillin, 100 units/ml streptomycin at 37° C. 5% CO2 incubator for 12 hours. After washing the cell line with PBS, starvation was induced in a Minimum Essential Medium for an hour. 20 uM of each carrier peptide was treated and cultured at 37° C. for an hour. After repeating the step of washing the cells with PBS for three times, Trypsin-EDTA was treated form 10 mins at 37° C. to separate the carrier peptide on the outside of the cell. cells were collected with refrigerated PBS and centrifugation was performed to repeat the step of washing the cells for three times. After then, the cells were suspended in 0.5 ml of PBS containing 4% Paraformaldehyde and fluorescence of the cells was analyzed using FACS Calibur (Becton Dickinson). The cellular uptake aspect of control and various peptides combined with FITC was compared and analyzed by MFI (Mean Fluorescence Intensity).
Analysis results shown in FIGS. 2 to 29 are given in detail in Table 7 below.

As to “LTS (listed as Homo sapiens) [Pep-RIA-158]”, the “cellular uptake, MFI (Mean Fluorescence Intensity)” value (from here on “cellular uptake, MFI”) turned out to be 9.91 ± 1.44.
Take “RQHREARPALLTSRLRFIPKPDGLRPI (listed as Homo sapiens) [Pep-RIA-60]”: the “cellular uptake, MFI” value is given as 15.93 ± 1.84.
Regarding “EARPALLTSRLRFIPKPDGLRP (listed as Homo sapiens) [Pep-RIA-69]”, the “cellular uptake, MFI” value is on record as 13.72 ± 0.68.
For “LTSRLRF (listed as Homo sapiens) [Pep-RIA-155]”, the “cellular uptake, MFI” value is recorded as 14.31 ± 0.55.
The value for “AEVRQHREARPALLTSRLRFIPKPDG (listed as Homo sapiens) [Pep-RIA-53]” was 15.85 ± 0.74; that for “ALLTS (listed as Homo sapiens) [Pep-RIA-143]” was 13.24 ± 0.37; that for “LLTSRLR (listed as Homo sapiens) [Pep-RIA-149]” was 16.2 ± 0.22.
To “RLRFIPK (listed as Homo sapiens) [Pep-RIA-99]” belongs 17.45 ± 0.19.
To “IPK (listed as Homo sapiens) [Pep-RIA-103]” belongs 10.44 ± 0.18.
“REARPALLTSRLRFIPKPDGLR (listed as Homo sapiens) [Pep-RIA-39]”: the “cellular uptake, MFI” value is 15.84 ± 0.79.
On to “EARPA (listed as Homo sapiens) [Pep-RIA-88]”, for which the “cellular uptake, MFI” value amounted to 8.89 ± 0.61.
With “HREARPALLTSRLRFIPKPDGLRP (listed as Homo sapiens) [Pep-RIA-49]”, the “cellular uptake, MFI” value was determined as 15.15 ± 0.62.
With “PALLTSR (listed as Homo sapiens) [Pep-RIA-134]”, the “cellular uptake, MFI” value is 13.28 ± 0.75.
To “LLTSRL (listed as Homo sapiens) [Pep-RIA-108]” belongs 14.59 ± 0.17; to “EARPALLTSRLRFIPKPDGLRPIVNM (listed as Homo sapiens) [Pep-RIA-73]”, 24.33 ± 0.89; to “RPALLT (listed as Homo sapiens) [Pep-RIA-126]”, 11.51 ± 1.84.
To “SEAEVRQHREARPALLTSRLRFIPK (listed as Homo sapiens) [Pep-RIA-9]” belongs 12.7 ± 0.25; to “PALL (listed as Homo sapiens) [Pep-RIA-137]”, 10.71 ± 1.99.
As to “ARPALLTSRLRFIPK (listed as Homo sapiens) [Pep-RIA-91]”, the “cellular uptake, MFI” value came to 19.96 ± 0.51.
As to “RQHREARPALLTSRLRFIPKPDGLRP (listed as Homo sapiens) [Pep-RIA-47]”, the “cellular uptake, MFI” value is reported as 17.6 ± 0.82.
On to “EARPALLTSRLRFIPKPDG (listed as Homo sapiens) [Pep-RIA-66]”, for which the “cellular uptake, MFI” value is listed as 13.46 ± 0.19.

The record behind these values is patent US11844845B2, “Cell penetrating peptide, conjugate comprising same, and composition comprising conjugate” (GEMVAX & KAEL CO., LTD., priority 2012, dated 2023).
